The values below come from US20250002493A1, “PYRIDONE COMPOUND AND PREPARATION METHOD THEREFOR, PHARMACEUTICAL COMPOSITION AND USE” (NANJING CHINA-AUSTRALIA INSTITUTE OF TRANSLATIONAL MEDICINE …, priority 2022, published 2025).

Assay [1] has as its system MDA-MB-231 cancer cells. In words: Inhibitor-induced apoptosis, flow cytometry with Annexin V and propidium iodide. Format: cell-based, human. Particulars: 3 hours. As for the experimental part:
After treating the cells with 10 nM and 100 nM concentrations of the compounds for 3 hours, the induction of apoptosis was analyzed using flow cytometry with Annexin V and propidium iodide staining.
Background: Flow cytometry measures light scatter and fluorescence of single cells or particles in a stream.

The subject of assay [2] is SK-OV-3 human ovarian cancer cells. Nature of the assay: WST-8 cell proliferation assay, SK-OV-3. Format: cell-based. Particulars: 72 hours, read-out: SKOV-3 IC50. As for the experimental part:
(§1) The effects of the compounds provided by the present invention on the proliferation of different cancer cell lines were tested using the WST-8 assay kit. This method is based on the reduction of WST-8 by dehydrogenase in live cells to form a highly water-soluble yellow Formazan dye. Cells were seeded in a 96-well plate and cultured with the test compounds at 37° C. under 5% CO2 for 72 hours. Afterwards, 10% (v/v) WST-8 was added, and the samples were incubated for an additional 2-3 hours. The absorbance of the samples was measured at 450 nm using a Tecan microplate reader, and the concentration of the compound that inhibited 50% of cell proliferation (IC50, nM) was calculated. The activity of the compounds provided by the present invention was determined in three cancer cell lines: MDA-MB-231 human breast cancer cells, SK-OV-3 human ovarian cancer cells, and PANC1 human pancreatic cancer.

Assay [3] addresses BIR3 domain of human cIAP1 (residues 255-364) (Homo sapiens (Human), UniProt Q13490). In words: Fluorescence polarization competitive binding to cIAP1 BIR3. Particulars: FP, peptide probe 5 nM, cIAP1 BIR3 5 nM, 1 hour room temperature. As for the experimental part:
(§2) The binding affinity of the compounds provided by the present invention to IAP proteins was determined using a fluorescence polarization method (Nikolovska-Colesak et al, Anal. Biochem. 2004, 332:261-73). The recombinant BIR3 domains of human XIAP (residues 238-358), human cIAP1 (residues 255-364) and human cIAP2 (residues 236-342) fusing GST-tags were expressed in E. coli and purified using glutathione agarose 4B affinity chromatography and gel filtration chromatography. A 5-Fam fluorescently modified peptide probe (AbuRPFK(5-Fam)-NH2) was used to test the competitive binding ability of the compounds to the BIR3 domains of XIAP, cIAP1 and cIAP2. The peptide probe (5 nM), XIAP BIR3 (30 nM) or cIAP1 BIR3 (5 nM) or cIAP2 BIR3 (10 nM), and serial diluted compounds were mixed in a test buffer (100 mM potassium phosphate pH 7.5, 100 μg/ml bovine gamma globulin, 0.02% sodium azide, and 1 mM DTT). After incubating the samples at room temperature for 1 hour, the fluorescence polarization values were read using a Tecan microplate reader (FP excitation wavelength 485 nm, […] wavelength 530 nm). The IC50 value was obtained by fitting the curve using nonlinear least square regression with the Graphpad Prism software. The inhibition constant Ki, values were calculated using the Equation Ki, [I]50/([L]50/Kd+[P]0/Kd+1).
For orientation: Fluorescence polarisation rises when a labelled molecule tumbles more slowly, as on binding a larger partner.

Assay [4] concerns the target BIR3 domain of human XIAP (residues 238-358) (Homo sapiens (Human), UniProt P98170). Nature of the assay: Fluorescence polarization competitive binding to XIAP BIR3. Particulars: FP, peptide probe 5 nM, XIAP BIR3 30 nM, 1 hour room temperature. As for the experimental part: as §2
Assay [5] deals with MDA-MB-231 human breast cancer cells. Nature of the assay: WST-8 cell proliferation assay, MDA-MB-231. In kind it is cell-based. Particulars: 72 hours. As for the experimental part:
as §1
(In general: Tetrazolium assays rely on reduction of a dye to a coloured formazan, in cell work by metabolically active cells.)

The target in assay [6] is BIR3 domain of human cIAP2 (residues 236-342) (Homo sapiens (Human), UniProt Q13489). In words: Fluorescence polarization competitive binding to cIAP2 BIR3. Particulars: FP, peptide probe 5 nM, cIAP2 BIR3 10 nM, 1 hour room temperature. As for the experimental part:
as §2

Assay [7] has as its system PANC1 human pancreatic cancer. Nature of the assay: WST-8 cell proliferation assay, PANC1. In kind it is cell-based. Particulars: PANC-1, 72 hours. As for the experimental part:
as §1

Sequence of BIR3 domain of human cIAP2 (residues 236-342) (Q13489 236-342): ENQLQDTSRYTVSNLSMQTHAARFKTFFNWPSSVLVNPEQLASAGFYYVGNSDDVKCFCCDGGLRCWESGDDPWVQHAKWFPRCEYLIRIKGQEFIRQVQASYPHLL
Sequence of BIR3 domain of human cIAP1 (residues 255-364) (Q13490 255-364): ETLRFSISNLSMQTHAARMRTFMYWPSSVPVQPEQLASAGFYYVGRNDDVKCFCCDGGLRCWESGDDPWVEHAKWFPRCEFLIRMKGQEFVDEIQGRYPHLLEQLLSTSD
Sequence of BIR3 domain of human XIAP (residues 238-358) (P98170 238-358): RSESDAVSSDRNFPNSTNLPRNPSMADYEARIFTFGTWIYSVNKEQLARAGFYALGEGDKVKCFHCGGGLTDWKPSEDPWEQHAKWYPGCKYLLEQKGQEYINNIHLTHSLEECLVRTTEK

Broadly, the IC50 is the midpoint of a concentration-inhibition curve. In general, Ki refers to the dissociation constant of the complex between target and ligand, obtained from inhibition or displacement. Turning to `CN[C@@H](C)C(=O)N[C@H](C(=O)N1CCc2c1cc(Cc1ccc(F)cc1)c(=O)n2C)C1CCCCC1` [Compound I-3-1, (S)-N-((S)-1-cyclohexyl-2-(6-(4-fluorobenzyl)-4-methyl-5-oxo-2,3,4,5-tetrahydro-1H-pyrrolo[3,2-b]pyridine-1-yl)-2-oxyethyl)-2-(methylamino)propanamide], the “Proportion of apoptotic cells” value in assay [1] (Drug concentration 10 nM) is 36%; in assay [1] (Drug concentration 100 nM), 48%. The values for the IC50 in assay [2], in assay [5] and in assay [7] were 4 nM, 5 nM and 58 nM, respectively. The Ki in assay [3] was found to be 1.2 nM; in assay [4], 30.7 nM; in assay [6], 2.6 nM.
As for `CN[C@@H](C)C(=O)N[C@H](C(=O)N1CCc2c1cc(Cc1ccc(F)cc1)c(=O)n2C)C(C)(C)C` [Compound I-3-2], the “Proportion of apoptotic cells” value in assay [1] (Drug concentration 10 nM) is 38%; in assay [1] (Drug concentration 100 nM), 52%. Besides, the figures for the IC50 in assay [2], in assay [5] and in assay [7] were 2 nM, 2 nM and 43 nM, respectively. Also, the Ki in assay [3] came to 1.2 nM; in assay [4] it was 18.4 nM; in assay [6], 2.2 nM.
Take `CN[C@@H](C)C(=O)N[C@H](C(=O)N1CCc2c1cc(Cc1ccc(F)cc1F)c(=O)n2C)C(C)(C)C` [Compound I-3-3]: the “Proportion of apoptotic cells” value in assay [1] (Drug concentration 10 nM) stood at 43%; in assay [1] (Drug concentration 100 nM), 55%. Besides, the IC50 in assay [2] turned out to be 1 nM; in assay [5], 2 nM; in assay [7], 37 nM. Also, the figures for the Ki in assay [3], in assay [4] and in assay [6] were 1.4 nM, 13.7 nM and 2.2 nM, respectively.
For the molecule `CN[C@@H](C)C(=O)N[C@H](C(=O)N1CCc2[nH]c(=O)c(Cc3ccc(F)cc3)cc21)C1CCCCC1` [Compound I-4-1, (S)-N-((S)-1-cyclohexyl-2-(6-(4-fluorobenzyl)-5-oxo-2,3,4,5-tetrahydro-1H-pyrrolo[3,2-b]pyridine-1-yl)-2-oxyethyl)-2-(methylamino)propanamide], the “Proportion of apoptotic cells” value in assay [1] (Drug concentration 10 nM) turned out to be 36%; in assay [1] (Drug concentration 100 nM), 49%. Moreover, the figures for the IC50 in assay [2], in assay [5] and in assay [7] were 1 nM, 6 nM and 53 nM, respectively. Moreover, the Ki in assay [3] worked out at 1.3 nM; in assay [4] it was 19.9 nM; in assay [6], 2.7 nM.
Take `CN[C@@H](C)C(=O)N[C@H](C(=O)N1CCc2[nH]c(=O)c(Cc3ccc(F)cc3F)cc21)C(C)(C)C` [Compound I-4-2]: the “Proportion of apoptotic cells” value in assay [1] (Drug concentration 10 nM) amounted to 41%; in assay [1] (Drug concentration 100 nM), 54%. Also, the figures for the IC50 in assay [2], in assay [5] and in assay [7] were 1 nM, 4 nM and 16 nM, respectively. Besides, the Ki in assay [3] was 1.3 nM; in assay [4] it was 9.4 nM; in assay [6] it was 2.4 nM.
